# Legend:
# Type in all cases: biochemical
# Aurora A kinase = biological target: T1, Aurora A kinase (Homo sapiens, UniProt O14965); test: Aurora A kinase assay ([γ-33P]ATP, CHOCKtide substrate); conditions: for inhibition at 1 µM: 1.0 μM test compound
# T1 construct: purchased Upstate
# T1 sequence (O14965 1-403): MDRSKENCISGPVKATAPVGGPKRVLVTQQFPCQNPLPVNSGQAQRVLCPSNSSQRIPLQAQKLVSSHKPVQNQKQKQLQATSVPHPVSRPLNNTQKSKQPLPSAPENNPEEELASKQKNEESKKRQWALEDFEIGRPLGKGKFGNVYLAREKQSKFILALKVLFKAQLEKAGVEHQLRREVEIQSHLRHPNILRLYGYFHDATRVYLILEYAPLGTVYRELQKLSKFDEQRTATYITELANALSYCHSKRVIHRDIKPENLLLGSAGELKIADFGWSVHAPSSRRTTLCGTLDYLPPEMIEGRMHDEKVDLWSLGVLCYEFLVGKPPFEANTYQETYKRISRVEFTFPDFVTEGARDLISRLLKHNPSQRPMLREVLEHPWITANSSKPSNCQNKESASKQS
# Procedure: (§1) Inhibition of Aurora Kinase by the compounds disclosed herein was determined by incubating Aurora kinase, substrate, and a test compound together for a period of time followed by quantifying the resultant phosphorylated product. Specifically, in a well of a 96-well round bottom plate, 25 μL of a reaction mixture containing (1) a test compound disclosed herein (diluted from 9 μM to the desired final concentration), [γ-33P]ATP/ATP mix (10 μM), CHOCKtide (1 μg, Genesis Biotech Inc.), and Aurora-A (1 ng, purchased from Upstate); or (2) a test compound disclosed herein (diluted from 9 μM to the desired final concentration), [γ-33P]ATP/ATP mix (40 μM), CHOCKtide (1 μg, Genesis Biotech Inc.), and Aurora-B (2.5 ng, purchased from Cell signaling); was prepared and incubated at 33° C. for 30 minutes. The reaction was then stopped by adding 5 μL of 3% phosphoric acid. The resultant solution (30 μL) was later harvested by a UniFilter Plate GF/B (PerkinElmer) followed by adding 30 μL of the scintillation cocktail (MicroScint 20, PerkinElmer) to the well. The radioactivity retained on the filter membrane was measured by a luminescence counter (PerkinElmer). IC50 value is defined as the concentration of the test compound which achieves a half-maximal inhibition of the kinase activity.
# Aurora B kinase = biological target: T2, Aurora B kinase (Homo sapiens, UniProt Q96GD4); test: Aurora B kinase assay ([γ-33P]ATP, CHOCKtide substrate); conditions: 1.0 μM test compound
# T2 construct: purchased Cell signaling
# T2 sequence (Q96GD4 whole entry): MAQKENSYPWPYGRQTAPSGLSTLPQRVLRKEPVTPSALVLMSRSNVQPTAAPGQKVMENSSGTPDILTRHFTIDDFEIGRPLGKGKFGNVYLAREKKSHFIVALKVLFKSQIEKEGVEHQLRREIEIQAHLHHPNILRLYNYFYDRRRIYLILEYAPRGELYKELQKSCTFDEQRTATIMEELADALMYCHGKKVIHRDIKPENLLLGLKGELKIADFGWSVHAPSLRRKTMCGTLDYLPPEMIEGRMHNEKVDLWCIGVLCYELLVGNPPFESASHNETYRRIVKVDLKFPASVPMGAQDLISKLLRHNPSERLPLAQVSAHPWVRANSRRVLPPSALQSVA
# Procedure: as §1
# c-Met kinase = biological target: T3, c-Met kinase (Homo sapiens, UniProt P08581); test: c-Met kinase assay (33P incorporation into Poly(Glu-Tyr)); conditions: 500 nM test compound
# T3 construct: recombinant N-terminal 6×His-tagged c-Met kinase domain construct expressed from baculovirus; 6xHis (N); made in house
# T3 sequence (P08581 1078-1345 limits assumed): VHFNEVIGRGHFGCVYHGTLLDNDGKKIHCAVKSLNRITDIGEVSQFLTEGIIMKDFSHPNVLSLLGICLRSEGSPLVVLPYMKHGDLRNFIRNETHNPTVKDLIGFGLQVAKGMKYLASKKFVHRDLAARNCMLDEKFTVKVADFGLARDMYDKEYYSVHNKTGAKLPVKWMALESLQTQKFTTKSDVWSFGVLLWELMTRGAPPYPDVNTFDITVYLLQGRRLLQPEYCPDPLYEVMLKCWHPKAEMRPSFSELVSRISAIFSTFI
# Procedure: Inhibition of c-Met kinase activity by compounds disclosed herein was quantified by measuring the amount of [^33P] incorporated into the substrate in the presence of a test compound. Briefly, a reaction mixture of 25 μL final volume containing 5 ng of c-Met kinase (obtained by purifying recombinant N-terminal 6×His-tagged c-Met kinase domain construct expressed from baculovirus), 1 μg of the substrate (Poly (Glu-Tyr, 4:1, Sigma)), kinase reaction buffer (20 mM MOPS pH 7.0, 1 mM EDTA, 5% glycerol, 0.01% Brij-35, 0.1% β-mercaptoethanol, 1 mg/mL BSA, 100 μM ATP, 0.1 μCi per well [^33P]-γ-ATP (2,500-3,000 Ci/mmol)), and a test compound (500 nM, diluted with 4% DMSO) or DMSO (as the control) was incubated at 30° C. for 30 minutes. The reaction was stopped by adding 5 μL of 3% phosphoric acid solution. The resultant reaction solution was then harvested onto a filter plate (UniFilter-96 GF/B, PerkinElmer), washed 20 times for 5 min with d.d. H2O, and followed by the addition of 30 μL of MicroScint™-20 Cocktail (PerkinElmer). The plate was then sealed and counted using a TopCount scintillation detector (PerkinElmer). The percentage of inhibition rate of the test compound was calculated by dividing the retained radioactivity of the test sample with the retained radioactivity of the control sample and shown in Table 3.
SMILES,inhibition at 1 µM (Aurora A kinase) [%],inhibition at 1 µM (Aurora B kinase) [%],inhibition at 0.5 µM (c-Met kinase) [%],IC50 (Aurora A kinase) [nM]
"CCOC(=O)CCc1c(/C=C2\C(=O)Nc3ccc(OC)cc32)[nH]c2c1C(=O)CCCC2 [DCB-70154, (Z)-ethyl 3-(2-((5-methoxy-2-oxoindolin-3-ylidene)methyl)-4-oxo-1,4,5,6,7,8-hexahydrocyclohepta[b]pyrrol-3-yl)propanoate]",-0.3,2.8,47.9,
"COc1ccc2c(c1)/C(=C/c1[nH]c3c(c1CCC(=O)O)C(=O)CCCC3)C(=O)N2 [DCB-70155, (Z)-3-(2-((5-methoxy-2-oxoindolin-3-ylidene)methyl)-4-oxo-1,4,5,6,7,8-hexahydrocyclohepta[b]pyrrol-3-yl)propanoic acid]",75.6,10.7,9.1,
"CNC(=O)CCc1c(/C=C2\C(=O)Nc3ccc(S(=O)(=O)Cc4c(Cl)cccc4Cl)cc32)[nH]c2c1C(=O)CCC2 [DCB-70157, (Z)-3-(2-((5-(2,6-dichlorobenzylsulfonyl)-2-oxoindolin-3-ylidene)methyl)-4-oxo-4,5,6,7-tetrahydro-1H-indol-3-yl)-N-methylpropanamide]",13,6.9,85.6,
"CCOC(=O)CCc1c(/C=C2\C(=O)Nc3ccc(S(=O)(=O)Cc4c(Cl)cccc4Cl)cc32)[nH]c2c1C(=O)CC(C)(C)C2 [DCB-70158, (Z)-ethyl 3-(2-((5-(2,6-dichlorobenzylsulfonyl)-2-oxoindolin-3-ylidene)methyl)-6,6-dimethyl-4-oxo-4,5,6,7-tetrahydro-1H-indol-3-yl)propanoate]",5.2,6.1,85.4,
"CC1(C)CC(=O)c2c([nH]c(/C=C3\C(=O)Nc4ccc(S(=O)(=O)Cc5c(Cl)cccc5Cl)cc43)c2CCC(=O)O)C1 [DCB-70159, (Z)-3-(2-((5-(2,6-dichlorobenzylsulfonyl)-2-oxoindolin-3-ylidene)methyl)-6,6-dimethyl-4-oxo-4,5,6,7-tetrahydro-1H-indol-3-yl)propanoic acid]",13.9,-5.5,81.3,
"CCOC(=O)CCc1c(/C=C2\C(=O)Nc3ccc(S(=O)(=O)N4CCc5ccccc54)cc32)[nH]c2c1C(=O)CC(C)(C)C2 [DCB-70160, (Z)-ethyl 3-(2-((5-(indolin-1-ylsulfonyl)-2-oxoindolin-3-ylidene)methyl)-6,6-dimethyl-4-oxo-4,5,6,7-tetrahydro-1H-indol-3-yl)propanoate]",5,6.1,59.1,
"CC1(C)CC(=O)c2c([nH]c(/C=C3\C(=O)Nc4ccc(S(=O)(=O)N5CCc6ccccc65)cc43)c2CCC(=O)O)C1 [DCB-70161, (Z)-3-(2-((5-(indolin-1-ylsulfonyl)-2-oxoindolin-3-ylidene)methyl)-6,6-dimethyl-4-oxo-4,5,6,7-tetrahydro-1H-indol-3-yl)propanoic acid]",78.8,14.6,59.7,
"CCOC(=O)CCc1c(/C=C2\C(=O)Nc3ccc(OC)cc32)[nH]c2c1C(=O)CCC2 [DCB-70166, (Z)-ethyl 3-(2-((5-methoxy-2-oxoindolin-3-ylidene)methyl)-4-oxo-4,5,6,7-tetrahydro-1H-indol-3-yl)propanoate]",48.8,13,21.6,
"COc1ccc2c(c1)/C(=C/c1[nH]c3c(c1CCC(=O)O)C(=O)CCC3)C(=O)N2 [DCB-70167, (Z)-3-(2-((5-methoxy-2-oxoindolin-3-ylidene)methyl)-4-oxo-4,5,6,7-tetrahydro-1H-indol-3-yl)propanoic acid]",86.4,19.8,11.8,134
"CCOC(=O)CCc1c(/C=C2\C(=O)Nc3ccc(NS(=O)(=O)c4ccccc4)cc32)[nH]c2c1C(=O)CC(C)(C)C2 [DCB-70168, (Z)-ethyl 3-(6,6-dimethyl-4-oxo-2-((2-oxo-5-(phenylsulfonamido)indolin-3-ylidene)methyl)-4,5,6,7-tetrahydro-1H-indol-3-yl)propanoate]",53.4,30.6,12.7,
"CC1(C)CC(=O)c2c([nH]c(/C=C3\C(=O)Nc4ccc(NS(=O)(=O)c5ccccc5)cc43)c2CCC(=O)O)C1 [DCB-70169, (Z)-3-(6,6-dimethyl-4-oxo-2-((2-oxo-5-(phenylsulfonamido)indolin-3-ylidene)methyl)-4,5,6,7-tetrahydro-1H-indol-3-yl)propanoic acid]",79.6,31,10.8,

# More lines, now with the values ahead:
inhibition at 1 µM (Aurora A kinase) [%],inhibition at 1 µM (Aurora B kinase) [%],inhibition at 0.5 µM (c-Met kinase) [%],IC50 (Aurora A kinase) [nM],SMILES
10.5,2.8,13.1,,"CCCCCCC#Cc1ccc2c(c1)NC(=O)/C2=C\c1[nH]c2c(c1CCC(=O)OCC)C(=O)CCC2 [DCB-70170, (Z)-ethyl 3-(2-((6-(oct-1-ynyl)-2-oxoindolin-3-ylidene)methyl)-4-oxo-4,5,6,7-tetrahydro-1H-indol-3-yl)propanoate]"
73,17.4,18.2,,"CCCCCCC#Cc1ccc2c(c1)NC(=O)/C2=C\c1[nH]c2c(c1CCC(=O)O)C(=O)CCC2 [DCB-70171, (Z)-3-(2-((6-(oct-1-ynyl)-2-oxoindolin-3-ylidene)methyl)-4-oxo-4,5,6,7-tetrahydro-1H-indol-3-yl)propanoic acid]"
-3.1,-3.2,10.4,,"CCCCCCC#Cc1ccc2c(c1)/C(=C/c1[nH]c3c(c1CCC(=O)OCC)C(=O)CCC3)C(=O)N2 [DCB-70172, (Z)-ethyl 3-(2-((5-(oct-1-ynyl)-2-oxoindolin-3-ylidene)methyl)-4-oxo-4,5,6,7-tetrahydro-1H-indol-3-yl)propanoate]"
13.6,-9.8,13.7,,"CCCCCCC#Cc1ccc2c(c1)/C(=C/c1[nH]c3c(c1CCC(=O)O)C(=O)CCC3)C(=O)N2 [DCB-70173, (Z)-3-(2-((5-(oct-1-ynyl)-2-oxoindolin-3-ylidene)methyl)-4-oxo-4,5,6,7-tetrahydro-1H-indol-3-yl)propanoic acid]"
2.4,-11.4,4,,"CCOC(=O)CCc1c(/C=C2\C(=O)Nc3ccc(NC(=O)NC45CC6CC(CC(C6)C4)C5)cc32)[nH]c2c1C(=O)CCC2 [DCB-70174, Ethyl 3-(2-((Z)-(5-(3-(1-adamantanyl)ureido)-2-oxoindolin-3-ylidene)methyl)-4-oxo-4,5,6,7-tetrahydro-1H-indol-3-yl)propanoate]"
30.7,8.4,17.3,,"CCOC(=O)CCc1c(/C=C2\C(=O)Nc3ccc(NCc4ccc(OC)cc4)cc32)[nH]c2c1C(=O)CCC2 [DCB-70175, (Z)-ethyl 3-(2-((5-(4-methoxybenzylamino)-2-oxoindolin-3-ylidene)methyl)-4-oxo-4,5,6,7-tetrahydro-1H-indol-3-yl)propanoate]"
68.5,43.7,,,"CCN(CC)CCNC(=O)CCc1c(/C=C2\C(=O)Nc3ccc(S(=O)(=O)Cc4c(Cl)cccc4Cl)cc32)[nH]c2c1C(=O)CCC2 [DCB-70223, (Z)-3-(2-((5-(2,6-dichlorobenzylsulfonyl)-2-oxoindolin-3-ylidene)methyl)-4-oxo-4,5,6,7-tetrahydro-1H-indol-3-yl)-N-(2-(diethylamino)ethyl)propanamide]"

# Reference: patent US7897602B2, “Indolinone compounds as kinase inhibitors” (Development Center for Biotechnology, priority 2009, dated 2011)
